{"source": "patent US8569511B2", "about": "“Substituted 3-(1H-benzo[d]imidazol-2-yl)-1H-indazole analogs as inhibitors of the PDK1 kinase” (University of Utah Research Foundation, priority 2011, dated 2013)", "key": {"[1]": {"system": "BT549", "assay": "Cell viability assay, cancer cell line panel", "assay_type": "cell-based", "conditions": "Homo sapiens, BT-549; mutation PTEN"}, "[2]": {"system": "MCF-7", "assay": "Cell viability assay, cancer cell line panel", "assay_type": "cell-based", "conditions": "Homo sapiens, MCF7; mutation PIK3CA"}, "[3]": {"system": "T47D", "assay": "Cell viability assay, cancer cell line panel", "assay_type": "cell-based", "conditions": "Homo sapiens, mutation PIK3CA"}, "[4]": {"system": "HT-29", "assay": "Cell viability assay, cancer cell line panel", "assay_type": "cell-based", "conditions": "Homo sapiens, mutation PIK3CA, BRAF"}, "[5]": {"system": "AN3-CA cells", "assay": "Cell viability assay (ATP-lite)", "assay_type": "cell-based", "description": "AN3-CA (PTEN-deficient), RL95-2 (PTEN-deficient), and HEC-1A (PTEN-wild type) cells were plated in 45 μl of RPMI-1640 media supplemented with 10% FBS and 1% Pen/Strep at a density of 1000 cells per well in white 384-well plates. Cells were allowed to attach by incubation overnight at 37° C. and 5% CO2. Test compounds were diluted to 10× concentrations in RPMI-1640 media (containing 3% DMSO) and 5 μl 1 of these dilutions were added in triplicate to the appropriate wells containing the cells. The plates containing the drug-treated cells and appropriate controls were incubated for 96 hours. At the end of the incubation, 40 μl of ATP-lite (PerkinElmer, Inc., Waltham, Massachussetts) reagent were added to each well and luminescence signal was measured on an EnVision microplate reader.\nAlternatively, AN3-CA, RL95-2, HEC-1A endometrial cancer cell lines were plated at a density of 2000 cells per well in a 96 well culture plate in 45 μl of cell culture media and incubated overnight. The following day, test compounds were added to the cells in 5 μl of serum-free media to generate final concentrations of 10, 3, 1, 0.3, 0.1, 0.03, 0.01, or 0.003 μM. Vehicle treated controls were also included and each condition was applied in quadruplicate. Following 96 hours of incubation, 35 μL of ATP-lite (PerkinElmer) reagent was added each well and allowed to react for 10 minutes. Plate was read on a Envision 2104 MultiLabel reader (PerkinElmer).\n(§1) IC50 values are determined using GraphPad Prism 5 software. The data were entered as an X-Y plot into the software as percent inhibition for each concentration of the drug. The concentration values of the drug were log transformed and the nonlinear regression was carried out using the “sigmoidal dose-response (variable slope)” option within the GraphPad software to model the data and calculate IC50 values."}, "[6]": {"system": "HCT-15", "assay": "Cell viability assay, cancer cell line panel", "assay_type": "cell-based", "conditions": "Homo sapiens, mutation KRAS, PIK3CA"}, "[7]": {"system": "PC-3", "assay": "Cell viability assay, cancer cell line panel", "assay_type": "cell-based", "conditions": "Homo sapiens, mutation PTEN"}, "[8]": {"molecular_target": "T1, PDK1 (Homo sapiens (Human), UniProt O15530)", "T1 sequence (O15530 whole entry)": "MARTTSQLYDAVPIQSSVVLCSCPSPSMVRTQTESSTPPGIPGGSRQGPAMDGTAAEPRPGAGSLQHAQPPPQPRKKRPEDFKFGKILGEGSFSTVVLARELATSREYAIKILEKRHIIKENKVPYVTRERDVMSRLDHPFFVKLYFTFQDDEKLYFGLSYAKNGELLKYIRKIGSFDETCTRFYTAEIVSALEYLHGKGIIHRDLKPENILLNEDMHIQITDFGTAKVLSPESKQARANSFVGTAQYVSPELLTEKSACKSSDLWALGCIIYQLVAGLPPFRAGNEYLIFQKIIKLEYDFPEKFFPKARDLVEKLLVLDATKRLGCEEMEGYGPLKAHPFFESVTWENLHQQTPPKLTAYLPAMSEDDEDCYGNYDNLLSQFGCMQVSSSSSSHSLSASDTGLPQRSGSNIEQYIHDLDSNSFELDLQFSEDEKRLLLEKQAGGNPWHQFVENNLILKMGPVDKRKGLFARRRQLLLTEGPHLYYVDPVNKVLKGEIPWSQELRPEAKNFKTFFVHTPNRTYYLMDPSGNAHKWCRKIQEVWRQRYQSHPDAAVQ", "assay": "Time resolved-FRET LanthaScreen Kinase Binding Assay", "source_text": "Binding of the tracer to the kinase is detected using a europium-labeled anti-tag antibody, which binds to the kinase of interest. […] Binding of an inhibitor to the kinase competes for binding with the tracer, resulting in a loss of FRET.\nActivity of compounds was routinely assessed using a secondary assay as described herein. The secondary assay was a time resolved-FRET LanthaScreen Kinase Binding Assay (Invitrogen Corporation, Carlsbad, Calif.). This assay evaluates the ability of the test compound to compete with a fluorescently-labeled tracer molecule to bind in the ATP pocket of a kinase. The assay signal is generated when a Europium-conjugated anti-His tag antibody (Invitrogen) bound to the His-tagged kinase produces a TR-FRET signal with the tracer molecule bound in the ATP pocket of the kinase. […] After 60 minutes of incubation at room temperature, the TR-FRET signal was measured on an EnVision microplate reader.\nas §1"}, "[9]": {"system": "BT-20", "assay": "Cell viability assay, cancer cell line panel", "assay_type": "cell-based", "conditions": "Homo sapiens, mutation PIK3CA"}, "[10]": {"system": "NCCIT", "assay": "Cell viability assay, cancer cell line panel", "assay_type": "cell-based", "conditions": "Homo sapiens, mutation PTEN"}, "[11]": {"system": "H1975", "assay": "Cell viability assay, cancer cell line panel", "assay_type": "cell-based", "conditions": "Homo sapiens, NCI-H1975; mutation PIK3CA"}, "[12]": {"system": "SK-OV-3", "assay": "Cell viability assay, cancer cell line panel", "assay_type": "cell-based", "conditions": "Homo sapiens, mutation PIK3CA"}, "[13]": {"molecular_target": "T1, PDK1", "assay": "PDK1 ATP Depletion Kinase Assay (Kinase-Glo luminescence)", "assay_type": "biochemical", "conditions": "PDKtide substrate, read-out: PDK1 Kinase assays (IC50, μM) Activity Assay", "description": "Test compounds were diluted to desired concentrations in kinase reaction buffer and briefly incubated with human recombinant PDK1 kinase which is histidine-tagged (Invitrogen Corporation, Carlsbad, Calif.). The reaction was subsequently initiated by the addition of ATP and PDKtide substrate (Millipore Corporation, Billerica, Massachussetts). […] After an incubation of 60 minutes at room temperature, 10 μl of the Kinase-Glo reagent (Promega Corporation, Madison, Wis.) was added to each well and incubated for an additional 10 minutes. Luminescence was measured on an EnVision microplate reader (PerkinElmer). The amount of luminescence from each reaction is inversely correlated with PDK1 kinase activity. Percent inhibition and IC50 values can be calculated by comparing enzyme activity in drug-treated wells to the appropriate controls, e.g. vehicle control.\nas §1"}, "[14]": {"assay": "Mouse xenograft study, body weight", "assay_type": "in vivo, athymic nude mice", "conditions": "50 mg/kg IP, daily Monday through Friday for two weeks", "description": "The in vivo effects of compounds were determined in a mouse subcutaneous xenograft tumor model wherein AN3-CA cells were implanted subcutaneously into the hind flank of athymic nude mice. Briefly, seven-week-old mice were injected with 2×10^6 AN3-CA cells on the right hind flank. […] The vehicle for these studies was 20% DMSO, 20% cremophor, and 60% water. The test compound was administered on daily schedule (Monday through Friday) for two weeks at a concentration of 50 mg/kg by intraperitoneal (“IP”) injection. The mice were sacrificed and the tumors were excised for western blot analysis. Tumor volume was determined using the formula L×W2×0.5, where L is the longest length, and W is the shortest length. Tumor volume and body weight was measured twice a week.\nThe study was carried out as described above for 2,2-difluoro-N-(3-(5-morpholino-1H-benzo[d]imidazol-2-yl)-1H-indazol-5-yl)cyclopropanecarboxamide, except that the test compound used was 2,2-difluoro-N-(3-(5-(2-methylmorpholino)-1H-benzo[d]imidazol-2-yl)-1H-indazol-5-yl)cyclopropanecarboxamide. Data are shown in FIGS. 10A and 10B for the effect of the compound on tumor volume and body weight, respectively."}, "[15]": {"conditions": "Homo sapiens, AN3-CA, AN3-CA (PTEN and PIK3R1 mutations), read-out: Cell Viability IC50 AN3-CA"}, "[16]": {"conditions": "TR-FRET Lanthascreen Kinase Binding Assay, read-out: PDK1 Kinase assays (IC50, μM) Binding Assay"}, "[17]": {"conditions": "tested in triplicate, FIG. 5, read-out: IC50 in PDK1 time resolved-FRET LanthaScreen Kinase Binding Assay"}}, "note": "Where two headings read alike, the source gives them in different places.", "data": [{"smiles": "O=C(Nc1ccc2[nH]nc(-c3nc4ccc(N5CCOCC5)cc4[nH]3)c2c1)C1CC1(F)F", "note": "(stereo not drawn) [Compound 1, 2,2-difluoro-N-(3-(5-morpholino-1H-benzo[d]imidazol-2-yl)-1H-indazol-5-yl)cyclopropanecarboxamide]", "values": [{"measurement": "IC50", "setting": "[1]", "value": 3.16, "unit": "µM"}, {"measurement": "IC50", "setting": "[2]", "value": 8.79, "unit": "µM"}, {"measurement": "IC50", "setting": "[3]", "value": 12.8, "unit": "µM"}, {"measurement": "IC50", "setting": "[4]", "value": 10.6, "unit": "µM"}, {"measurement": "Potency in cell viability assay, AN3-CA (in words)", "setting": "[5]; FIG. 6", "value": "most potent"}, {"measurement": "IC50", "setting": "[5]; [15]", "value": 0.027, "unit": "µM"}, {"measurement": "IC50", "setting": "[5]; Homo sapiens, AN3-CA, Table VI panel, mutation PTEN, PIK3R1, read-out: IC50 cell viability, AN3-CA", "value": 0.048, "unit": "µM"}, {"measurement": "IC50", "setting": "[5]; Homo sapiens, AN3-CA, read-out: IC50 cell viability, AN3-CA cells", "value": 0.027, "unit": "µM"}, {"measurement": "IC50", "setting": "[6]", "value": 6.99, "unit": "µM"}, {"measurement": "IC50", "setting": "[7]", "value": 7.56, "unit": "µM"}, {"measurement": "IC50", "setting": "[8]; [16]", "value": 0.08, "unit": "µM"}, {"measurement": "IC50", "setting": "[8]; [17]", "value": 0.08, "unit": "µM"}, {"measurement": "IC50", "setting": "[9]", "value": 13.1, "unit": "µM"}, {"measurement": "IC50", "setting": "[10]", "value": 2.11, "unit": "µM"}, {"measurement": "IC50", "setting": "[11]", "value": 9.86, "unit": "µM"}, {"measurement": "IC50", "setting": "[12]", "value": 1.89, "unit": "µM"}, {"measurement": "IC50", "setting": "[13]", "value": 0.143, "unit": "µM"}, {"measurement": "Effect on body weight", "setting": "[14]", "value": "did not appear to cause any body weight loss"}]}, {"smiles": "CC1CN(c2ccc3nc(-c4n[nH]c5ccc(NC(=O)C6CC6(F)F)cc45)[nH]c3c2)CCO1", "note": "(stereo not drawn) [Compound 2, 2,2-difluoro-N-(3-(5-(2-methylmorpholino)-1H-benzo[d]imidazol-2-yl)-1H-indazol-5-yl)cyclopropanecarboxamide]", "values": [{"measurement": "IC50", "setting": "[5]; AN3-CA (PTEN and PIK3R1 mutations), listed as Test Compound 2, read-out: Cell Viability IC50 AN3-CA", "value": 0.023, "unit": "µM"}, {"measurement": "IC50", "setting": "[5]; [15]", "value": "< 0.03", "unit": "µM"}, {"measurement": "IC50", "setting": "[8]; [16]", "value": 0.094, "unit": "µM"}, {"measurement": "IC50", "setting": "[8]; [17]", "value": 0.094, "unit": "µM"}, {"measurement": "IC50", "setting": "[13]", "value": 0.159, "unit": "µM"}, {"measurement": "Effect on body weight", "setting": "[14]", "value": "did not appear to cause any body weight loss"}]}]}
